Values after ≈ are worked out from the molar mass of the structure shown. Active and inactive are the calls of the source. The calls are words filed in the database; no cut-off is given here.
Tests used:
[1] = test system: Acinetobacter calcoaceticus; experiment: Antibacterial activity against non-gentamicin-resistant Acinetobacter calcoaceticus clinical isolate assessed as susceptible isolates after 18 hrs by agar dilution method; type: functional
Haemophilus influenzae = experiment: Antibacterial activity against non-gentamicin-resistant Haemophilus influenzae clinical isolate assessed as susceptible isolates after 18 hrs by agar dilution method; type: functional, organism-based
Serratia marcescens [2] = experiment: Antibacterial activity against non-gentamicin-resistant Serratia marcescens clinical isolate after 18 hrs by agar dilution method; type: functional
Enterobacter cloacae = experiment: Antibacterial activity against non-gentamicin-resistant Enterobacter cloacae clinical isolate after 18 hrs by agar dilution method; type: functional
[3] = test system: Staphylococcus epidermidis; experiment: Antibacterial activity against Staphylococcus epidermidis isolate 01-55 after 18 hrs by agar dilution method; type: functional
[4] = test system: Staphylococcus epidermidis; experiment: Antibacterial activity against non-gentamicin-resistant Staphylococcus epidermidis clinical isolate after 18 hrs by agar dilution method; type: functional
Pseudomonas sp. [5] = experiment: Antibacterial activity against gentamicin-resistant Pseudomonas spp. clinical isolate after 18 hrs by agar dilution method; type: functional
Staphylococcus aureus [6] = experiment: Bactericidal activity against Staphylococcus aureus ATCC 29213 at >=1 MIC up to 8 hrs by time-kill study; type: functional, organism-based
[7] = test system: Acinetobacter calcoaceticus; experiment: Antibacterial activity against gentamicin-resistant Acinetobacter calcoaceticus clinical isolate after 18 hrs by agar dilution method; type: functional
Klebsiella pneumoniae [8] = experiment: Antibacterial activity against non-gentamicin-resistant Klebsiella pneumoniae clinical isolate after 18 hrs by agar dilution method; type: functional
Klebsiella pneumoniae [9] = experiment: Antibacterial activity against Klebsiella pneumoniae isolate 01-21 after 18 hrs by agar dilution method; type: functional
Klebsiella aerogenes = experiment: Antibacterial activity against gentamicin-resistant Enterobacter aerogenes clinical isolate after 18 hrs by agar dilution method; type: functional
[10] = test system: Staphylococcus epidermidis; experiment: Bactericidal activity against Staphylococcus epidermidis isolate 01-55 at >=1 MIC up to 8 hrs by time-kill study; type: functional, organism-based
Klebsiella pneumoniae [11] = experiment: Antibacterial activity against gentamicin-resistant Klebsiella pneumoniae clinical isolate after 18 hrs by agar dilution method; type: functional
Pseudomonas aeruginosa = experiment: Antibacterial activity against gentamicin-resistant Pseudomonas aeruginosa clinical isolate after 18 hrs by agar dilution method; type: functional
Citrobacter freundii = experiment: Antibacterial activity against non-gentamicin-resistant Citrobacter freundii clinical isolate assessed as susceptible isolates after 18 hrs by agar dilution method; type: functional
Klebsiella pneumoniae [12] = experiment: Antibacterial activity against Klebsiella pneumoniae isolate 01-21 at 1 MIC up to 8 hrs by time-kill study; type: functional, organism-based
Staphylococcus aureus [13] = experiment: Antibacterial activity against non-gentamicin-resistant Staphylococcus aureus clinical isolate after 18 hrs by agar dilution method; type: functional
Providencia rettgeri = experiment: Antibacterial activity against non-gentamicin-resistant Proteus rettgeri clinical isolate assessed as susceptible isolates after 18 hrs by agar dilution method; type: functional
Staphylococcus aureus [14] = experiment: Antibacterial activity against Staphylococcus aureus ATCC 29213 after 18 hrs by agar dilution method; type: functional
Pseudomonas sp. [15] = experiment: Antibacterial activity against non-gentamicin-resistant Pseudomonas spp. clinical isolate after 18 hrs by agar dilution method; type: functional
Enterococcus faecalis = experiment: Antibacterial activity against gentamicin-resistant Enterococcus faecalis clinical isolate after 18 hrs by agar dilution method; type: functional
Morganella morganii = experiment: Antibacterial activity against non-gentamicin-resistant Morganella morganii clinical isolate assessed as susceptible isolates after 18 hrs by agar dilution method; type: functional
Klebsiella pneumoniae [16] = experiment: Antibacterial activity against gentamicin-resistant Klebsiella pneumoniae clinical isolate assessed as susceptible isolates after 18 hrs by agar dilution method; type: functional
Klebsiella pneumoniae [17] = experiment: Antibacterial activity against non-gentamicin-resistant Klebsiella pneumoniae clinical isolate assessed as susceptible isolates after 18 hrs by agar dilution method; type: functional
Serratia marcescens [18] = experiment: Antibacterial activity against non-gentamicin-resistant Serratia marcescens clinical isolate assessed as susceptible isolates after 18 hrs by agar dilution method; type: functional
[19] = test system: Acinetobacter calcoaceticus; experiment: Antibacterial activity against non-gentamicin-resistant Acinetobacter calcoaceticus clinical isolate after 18 hrs by agar dilution method; type: functional
Escherichia coli = experiment: Antibacterial activity against Escherichia coli ATCC 25922 at MIC up to 8 hrs by time-kill study; type: functional, organism-based
[20] = test system: Escherichia coli BL21(DE3); experiment: Phosphorylation activity of AAC(6')-APH(2'') in Escherichia coli BL21(DE3) assessed as oxidation of NADH by pyruvate kinase relative to verdamicin
[21] = test system: Escherichia coli BL21(DE3); experiment: Ratio of Vmax to Km for AAC(6')-APH(2'') in Escherichia coli BL21(DE3) assessed as oxidation of NADH by pyruvate kinase relative to netilmicin

GENTAMICIN
Activity [1]: 98% | Activity (Haemophilus influenzae): inactive | MIC50 (Serratia marcescens [2]): 0.25 µg/mL | MIC90 (Serratia marcescens [2]): 0.5 µg/mL | MIC50 (Enterobacter cloacae): 0.25 µg/mL | MIC90 (Enterobacter cloacae): 0.5 µg/mL | MIC [3]: 1 µg/mL | MIC50 [4]: 0.06 µg/mL | MIC90 [4]: 4 µg/mL | MIC50 (Pseudomonas sp. [5]): 128 µg/mL | MIC90 (Pseudomonas sp. [5]): > 128 µg/mL | Activity (Staphylococcus aureus [6]): Dose-dependent effect | MIC50 [7]: > 128 µg/mL | MIC90 [7]: > 128 µg/mL | MIC50 (Klebsiella pneumoniae [8]): 0.25 µg/mL | MIC90 (Klebsiella pneumoniae [8]): 0.5 µg/mL | MIC (Klebsiella pneumoniae [9]): 0.25 µg/mL | MIC50 (Klebsiella aerogenes): > 128 µg/mL | MIC90 (Klebsiella aerogenes): > 128 µg/mL | Activity [10]: Dose-dependent effect | MIC50 (Klebsiella pneumoniae [11]): 128 µg/mL | MIC90 (Klebsiella pneumoniae [11]): > 128 µg/mL | MIC50 (Pseudomonas aeruginosa): > 128 µg/mL | MIC90 (Pseudomonas aeruginosa): > 128 µg/mL | Activity (Citrobacter freundii): 100% | Activity (Klebsiella pneumoniae [12]): Dose-dependent effect | MIC50 (Staphylococcus aureus [13]): 0.125 µg/mL | MIC90 (Staphylococcus aureus [13]): 8 µg/mL | Activity (Providencia rettgeri): 84.6% | MIC (Staphylococcus aureus [14]): 0.125 µg/mL | MIC50 (Pseudomonas sp. [15]): 2 µg/mL | MIC90 (Pseudomonas sp. [15]): 8 µg/mL | MIC50 (Enterococcus faecalis): > 128 µg/mL | MIC90 (Enterococcus faecalis): > 128 µg/mL | Activity (Morganella morganii): 76% | Activity (Klebsiella pneumoniae [16]): 0% | Activity (Klebsiella pneumoniae [17]): 100% | Activity (Serratia marcescens [18]): 100% | MIC50 [19]: 0.25 µg/mL | MIC90 [19]: 2 µg/mL | Activity (Escherichia coli): Dose-dependent effect

NCC[C@H](O)C(=O)N[C@@H]1C[C@H](N)[C@@H](O[C@H]2O[C@H](CN)[C@@H](O)[C@H](O)[C@H]2O)[C@H](O)[C@H]1O[C@H]1O[C@H](CO)[C@@H](O)[C@H](N)[C@H]1O [AMIKACIN]
Activity [1]: 98% | Activity (Haemophilus influenzae): inactive | MIC50 (Serratia marcescens [2]): 1 µg/mL (≈ 1.71 µM) | MIC90 (Serratia marcescens [2]): 2 µg/mL (≈ 3.42 µM) | MIC50 (Enterobacter cloacae): 2 µg/mL (≈ 3.42 µM) | MIC90 (Enterobacter cloacae): 4 µg/mL (≈ 6.83 µM) | MIC50 [4]: 0.5 µg/mL (≈ 0.854 µM) | MIC90 [4]: 2 µg/mL (≈ 3.42 µM) | MIC50 (Pseudomonas sp. [5]): > 128 µg/mL | MIC90 (Pseudomonas sp. [5]): > 128 µg/mL | MIC50 [7]: 16 µg/mL (≈ 27.3 µM) | MIC90 [7]: > 128 µg/mL | MIC50 (Klebsiella pneumoniae [8]): 1 µg/mL (≈ 1.71 µM) | MIC90 (Klebsiella pneumoniae [8]): 1 µg/mL (≈ 1.71 µM) | MIC50 (Klebsiella aerogenes): 16 µg/mL (≈ 27.3 µM) | MIC90 (Klebsiella aerogenes): 64 µg/mL (≈ 109 µM) | MIC50 (Klebsiella pneumoniae [11]): 1 µg/mL (≈ 1.71 µM) | MIC90 (Klebsiella pneumoniae [11]): > 128 µg/mL | MIC50 (Pseudomonas aeruginosa): 8 µg/mL (≈ 13.7 µM) | MIC90 (Pseudomonas aeruginosa): 32 µg/mL (≈ 54.6 µM) | Activity (Citrobacter freundii): 100% | MIC50 (Staphylococcus aureus [13]): 1 µg/mL (≈ 1.71 µM) | MIC90 (Staphylococcus aureus [13]): 2 µg/mL (≈ 3.42 µM) | Activity (Providencia rettgeri): 84.6% | MIC50 (Pseudomonas sp. [15]): 4 µg/mL (≈ 6.83 µM) | MIC90 (Pseudomonas sp. [15]): 16 µg/mL (≈ 27.3 µM) | MIC50 (Enterococcus faecalis): 128 µg/mL (≈ 219 µM) | MIC90 (Enterococcus faecalis): > 128 µg/mL | Activity (Morganella morganii): 96% | Activity (Klebsiella pneumoniae [16]): 82.1% | Activity (Klebsiella pneumoniae [17]): 100% | Activity (Serratia marcescens [18]): 96.3% | MIC50 [19]: 0.5 µg/mL (≈ 0.854 µM) | MIC90 [19]: 2 µg/mL (≈ 3.42 µM)

CCN[C@@H]1C[C@H](N)[C@@H](O[C@H]2OC(CN)=CC[C@H]2N)[C@H](O)[C@H]1O[C@H]1OC[C@](C)(O)[C@H](NC)[C@H]1O [NETILMICIN]
Activity [1]: 87.8% | Activity (Haemophilus influenzae): inactive | MIC50 (Serratia marcescens [2]): 1 µg/mL (≈ 2.1 µM) | MIC90 (Serratia marcescens [2]): 4 µg/mL (≈ 8.41 µM) | MIC50 (Enterobacter cloacae): 0.5 µg/mL (≈ 1.05 µM) | MIC90 (Enterobacter cloacae): 2 µg/mL (≈ 4.21 µM) | MIC50 [4]: 0.25 µg/mL (≈ 0.526 µM) | MIC90 [4]: 1 µg/mL (≈ 2.1 µM) | Vmax [20]: 55% | MIC50 (Pseudomonas sp. [5]): > 128 µg/mL | MIC90 (Pseudomonas sp. [5]): > 128 µg/mL | MIC50 [7]: 128 µg/mL (≈ 269 µM) | MIC90 [7]: > 128 µg/mL | MIC50 (Klebsiella pneumoniae [8]): 0.5 µg/mL (≈ 1.05 µM) | MIC90 (Klebsiella pneumoniae [8]): 0.5 µg/mL (≈ 1.05 µM) | Vmax/Km [21]: 7.4% | MIC50 (Klebsiella aerogenes): 32 µg/mL (≈ 67.3 µM) | MIC90 (Klebsiella aerogenes): 128 µg/mL (≈ 269 µM) | MIC50 (Klebsiella pneumoniae [11]): 32 µg/mL (≈ 67.3 µM) | MIC90 (Klebsiella pneumoniae [11]): > 128 µg/mL | MIC50 (Pseudomonas aeruginosa): > 128 µg/mL | MIC90 (Pseudomonas aeruginosa): > 128 µg/mL | Activity (Citrobacter freundii): 83.3% | MIC50 (Staphylococcus aureus [13]): 0.25 µg/mL (≈ 0.526 µM) | MIC90 (Staphylococcus aureus [13]): 16 µg/mL (≈ 33.6 µM) | Activity (Providencia rettgeri): 92.3% | MIC50 (Pseudomonas sp. [15]): 8 µg/mL (≈ 16.8 µM) | MIC90 (Pseudomonas sp. [15]): 32 µg/mL (≈ 67.3 µM) | MIC50 (Enterococcus faecalis): 4 µg/mL (≈ 8.41 µM) | MIC90 (Enterococcus faecalis): > 128 µg/mL | Activity (Morganella morganii): 100% | Activity (Klebsiella pneumoniae [16]): 17.9% | Activity (Klebsiella pneumoniae [17]): 94% | Activity (Serratia marcescens [18]): 96.3% | MIC50 [19]: 1 µg/mL (≈ 2.1 µM) | MIC90 [19]: 16 µg/mL (≈ 33.6 µM)

— ChEMBL document CHEMBL1275533, “In vitro antibacterial activity of vertilmicin and its susceptibility to modifications by the recombinant AAC6'-APH2'' enzyme” (2008)
